{
  "source": "patent US6472516B1",
  "about": "“Progestin-regulated gene” (The Garvan Institute of Medical Research, priority 1995, dated 2002)",
  "key": {"PRG1 mRNA [1]": {"system": "PRG1 mRNA", "experiment": "Northern analysis of PRG1 mRNA expression in T-47D cells", "format": "cell-based, human", "details": "for Induction of PRG1 mRNA by mitogen: T-47D growth-arrested by serum deprivation, 3 or 4 h, insulin 1.7 μM, heregulin 5 nM, bFGF 55 pM; for Relative mRNA Expression: relative to cells maintained in serum-free medium", "description": "(§1) The sources and maintenance of the human breast cancer cell lines used in this study were as described previously (33). 184 and 184B5 normal breast epithelial cells were the kind gift of Dr. M. Stampfer (University of California, Berkley, Calif.) and were maintained in mammary epithelial growth medium (Clonetics, San Diego, Calif.). Tissue culture experiments in serum-free medium were performed as previously described (6, 27). Briefly, T-47D cells were taken from stock cultures and passaged for 6 days in phenol red-free RPMI medium supplemented with 10% charcoal-treated fetal calf serum (FCS). During this time the cells received two changes of medium at 1- to 3-day intervals. The cells were replated into replicate 150 cm^2 flasks in medium containing 10% charcoal-treated FCS and the medium replaced with serum-free medium on the next two days. Serum-free medium was supplemented with 300 nM human transferrin. In experiments involving ORG 2058 the final serum-free medium contained 10 μg/ml (1.7 μM) human insulin. Three days after completion of these pre-treatments growth factor, steroid, steroid antagonist or cycloheximide were added. Control flasks received vehicle to the same final concentration. Cell cycle phase distribution was determined by analytical DNA flow cytometry, as previously described (6, 34).\nTissue culture experiments in serum-containing medium were performed as previously described (34). The experiment with livial and actinomycin D was as for experiments in serum-containing medium except that the medium contained 5% charcoal-treated FCS. Actinomycin D was added at the same time as livial. The experiment involving “estrogen rescue” was performed as described (30). Briefly, MCF-7 cells were cultured in medium containing 5% FCS for 2 days. The antiestrogen ICI 182780 (10 nM) was then added to the medium for 48 h. after which the growth-arrested cells were treated with 100 nM 17β-estradiol, also added directly to the medium, resulting in the synchronous re-entry of cells into the cell cycle.\nCells harvested from triplicate 150 cm^2 flasks were pooled and RNA extracted by a guanidinium-isothiocyanate-cesium chloride procedure and Northern analysis was performed as previously described with 20 μg of total RNA per lane (6, 11). The membranes were hybridized overnight at 50° C. with probes labelled with [α-^32P]dCTP (Amersham Australia Pty Ltd, Castle Hill, Australia) using the Random Prime Labelling Kit (Promega, Sydney, Australia). The membranes were washed at a highest stringency of 0.2× SSC (30 mM NaCl. 3 mM sodium citrate [pH 7.0])+ 1% sodiwn dodecyl sulfate at 65° C. and exposed to Kodak X-OMAT or BIOMAX film at −70° C. Human multiple tissue Northern blots (Clontech Laboratories, Inc. Palo Alto, Calif.) were hybridized under conditions recommended by the manufacturer. The mRNA abundance was quantified by densitometric analysis of autoradiographs using Molecular Dynamics Densitometer and software (Molecular Dynamics, Sunnyvale, Calif.). The accuracy of loading was estimated by hybridizing membranes with a [γ-^32P]ATP end-labelled oligonucleotide complementary to 18S rRNA."}, "T-47D cells": {"system": "T-47D cells", "details": "previously reported (refs 32, 54); cited from earlier work"}, "PRG1 mRNA [2]": {"system": "PRG1 mRNA", "experiment": "Northern analysis of PRG1 mRNA expression in MDA-MB-231 cells", "format": "cell-based, human", "description": "as §1\n(§2) Tissue culture experiments in serum-containing medium were performed as previously described (34). The experiment with livial and actinomycin D was as for experiments in serum-containing medium except that the medium contained 5% charcoal-treated FCS. Actinomycin D was added at the same time as livial. The experiment involving “estrogen rescue” was performed as described (30). […]\n(§3) Cells harvested from triplicate 150 cm^2 flasks were pooled and RNA extracted by a guanidinium-isothiocyanate-cesium chloride procedure and Northern analysis was performed as previously described with 20 μg of total RNA per lane (6, 11). […] The mRNA abundance was quantified by densitometric analysis of autoradiographs using Molecular Dynamics Densitometer and software (Molecular Dynamics, Sunnyvale, Calif.). […]"}, "PRG1 mRNA [3]": {"system": "PRG1 mRNA", "experiment": "Northern analysis of PRG1 mRNA expression in MCF-7 cells", "format": "cell-based, human", "description": "as §1, §2, §3"}, "[4]": {"details": "T-47D, insulin-supplemented serum-free medium, 10 nM"}},
  "note": "Marks after values point to notes of the source that are not given here. Numbered stars: 1 amine (or outer) side, 2 acyl side, 3 side chain; on linkers, the order of the positions; unused ones are H or OH. Bridge positions count the residues as written; N and C are the ends. Square brackets hold non-standard residues; d marks the D form. Peptide text beside a SMILES is read from it. I, II: the chains in the order shown. Actinocin(9to1) = Cc1c2oc3c(C)ccc(C(=O)[*:1])c3nc-2c(C(=O)[*:2])c(N)c1=O; NMeV = CN[C@H](C(=O)O)C(C)C; Sar = CNCC(=O)O",
  "data": [
    {"molecule": "C#C[C@]1(O)CC[C@H]2[C@@H]3[C@H](C)CC4=C(CCC(=O)C4)[C@H]3CC[C@@]21C", "note": "[livial, (7α, 17α)-17-hydroxy-7-methyl-19-norpregn-5(10)-en-20-yn-3-one]", "values": [
      {"measurement": "PRG1 mRNA induction (in words)", "setting": "PRG1 mRNA [1]; T-47D, 5% charcoal-treated FCS, 10 nM", "result": "induced"},
      {"measurement": "PRG1 mRNA induction in presence of transcription inhibitor", "setting": "PRG1 mRNA [1]; T-47D, 5% charcoal-treated FCS, livial 10 nM with actinomycin D 5 μg/ml", "result": "not induced"}
    ]},
    {"molecule": "bFGF: human recombinant bFGF", "values": [
      {"measurement": "Potency as mitogen in stimulating cell cycle progression", "setting": "T-47D cells", "result": "equipotent"},
      {"measurement": "Induction of PRG1 mRNA by mitogen", "setting": "PRG1 mRNA [1]", "result": 1.9, "unit": "fold"},
      {"measurement": "Relative mRNA Expression", "setting": "PRG1 mRNA [1]; T-47D, at 3 h", "result": "2.6^† at 3 h"}
    ]},
    {"molecule": "Cc1c2oc3c(C)ccc(C(=O)N[C@@H]4C(=O)N[C@H](C(C)C)C(=O)N5CCC[C@H]5C(=O)N(C)CC(=O)N(C)[C@@H](C(C)C)C(=O)O[C@@H]4C)c3nc-2c(C(=O)N[C@@H]2C(=O)N[C@H](C(C)C)C(=O)N3CCC[C@H]3C(=O)N(C)CC(=O)N(C)[C@@H](C(C)C)C(=O)O[C@@H]2C)c(N)c1=O", "note": "[actinomycin D] (I: T[dV]P[Sar][NMeV] / II: T[dV]P[Sar][NMeV]; ester I:1-I:C, II:1-II:C; linker I:N-II:N via Actinocin(9to1))", "values": [
      {"measurement": "Effect on progestin induction of PRG1 mRNA", "setting": "PRG1 mRNA [1]; T-47D, actinomycin D 5 μg/ml with livial 10 nM", "result": "blocked"}
    ]},
    {"molecule": "C[C@@H]1C[C@@H]([C@H](O)CC2CC(=O)NC(=O)C2)C(=O)[C@@H](C)C1", "note": "[cycloheximide, Cycloheximide]", "values": [
      {"measurement": "Effect on PRG1 mRNA, compound alone", "setting": "PRG1 mRNA [1]; T-47D, cycloheximide 20 μg/ml alone, 3 h", "result": "increase of PRG1 mRNA to a level similar to that achieved by ORG 2058 alone"},
      {"measurement": "Effect on progestin-mediated induction of PRG1 mRNA", "setting": "PRG1 mRNA [1]; T-47D, cycloheximide 20 μg/ml with ORG 2058 10 nM, 3 h", "result": "failed to block"}
    ]},
    {"molecule": "C[C@@H]1C[C@H]2[C@@H]3CCC4=CC(=O)C=C[C@]4(C)[C@@]3(F)[C@@H](O)C[C@]2(C)[C@@]1(O)C(=O)CO", "note": "[dexamethasone, 9-fluro-11,17,21-trihydroxy-16-methylpregn-1,4-diene-3,20-dione]", "values": [
      {"measurement": "PRG1 mRNA as percent of control levels", "setting": "PRG1 mRNA [2]; MDA-MB-231, 100 nM, 3 h", "result": "approximately 60 % of control"}
    ]},
    {"molecule": "CCC1CC2C3CCC4=CC(=O)CCC4C3CCC2(C)C1C(=O)CO", "note": "(stereo not drawn) [ORG 2058, 16α-ethyl-21-hydroxy-19-norpregn-4-en-3,20-dione]", "values": [
      {"measurement": "Superinduction of PRG1 mRNA relative to control", "setting": "PRG1 mRNA [1]; T-47D, ORG 2058 10 nM in presence of cycloheximide 20 μg/ml, 3 h, experiment of FIG. 8", "result": 12, "unit": "fold"},
      {"measurement": "Time by which PRG1 mRNA had returned to control levels", "setting": "PRG1 mRNA [1]; [4]", "result": "≤ 12", "unit": "h"},
      {"measurement": "Time of maximal PRG1 mRNA induction", "setting": "PRG1 mRNA [1]; [4]", "result": 3, "unit": "h"},
      {"measurement": "Maximal PRG1 mRNA induction relative to time-matched control", "setting": "PRG1 mRNA [1]; T-47D, insulin-supplemented serum-free medium, 10 nM, 3 h, experiment of FIG. 5", "result": 4.4, "unit": "fold"},
      {"measurement": "PRG1 mRNA decrease below control mRNA levels", "setting": "PRG1 mRNA [2]; MDA-MB-231 (PR-negative), 10 nM, 3 h", "result": "approximately 30%"},
      {"measurement": "PRG1 mRNA level at 6 h after the decrease at 3 h (in words)", "setting": "PRG1 mRNA [2]; MDA-MB-231, 6 h, ORG 2058 10 nM, dexamethasone 100 nM", "result": "recovery"},
      {"measurement": "PRG1 mRNA increase above control mRNA levels", "setting": "PRG1 mRNA [3]; MCF-7 (PR-positive), 5% FCS, 10 nM, 3 h", "result": "approximately 2 fold"}
    ]},
    {"molecule": "insulin: human insulin, Actrapid; CSL-Novo", "values": [
      {"measurement": "Potency as mitogen in stimulating cell cycle progression", "setting": "T-47D cells", "result": "equipotent"},
      {"measurement": "Induction of PRG1 mRNA by mitogen", "setting": "PRG1 mRNA [1]", "result": 2.8, "unit": "fold"},
      {"measurement": "Relative mRNA Expression", "setting": "PRG1 mRNA [1]; T-47D, at 4 h", "result": "2.8^† at 4 h"}
    ]},
    {"molecule": "C[C@]12CC[C@@H]3c4ccc(O)cc4CC[C@H]3[C@@H]1CC[C@@H]2O", "note": "[17β-estradiol]", "values": [
      {"measurement": "Relative mRNA Expression", "setting": "PRG1 mRNA [3]; MCF-7, at 4 h, after ICI 182 780 pre-treatment for 48 h, relative to antiestrogen treated control", "result": "2.0^‡ at 4 h"},
      {"measurement": "Induction of PRG1 mRNA by estrogen rescue", "setting": "PRG1 mRNA [3]; MCF-7 growth-arrested by ICI 182780 (10 nM, 48 h), then 100 nM 17β-estradiol, 4 h", "result": 2.0, "unit": "fold"}
    ]},
    {"molecule": "heregulin", "values": [
      {"measurement": "Potency as mitogen in stimulating cell cycle progression", "setting": "T-47D cells", "result": "one of the most potent mitogens"},
      {"measurement": "Induction of PRG1 mRNA by mitogen", "setting": "PRG1 mRNA [1]", "result": 2.6, "unit": "fold"},
      {"measurement": "Relative mRNA Expression", "setting": "PRG1 mRNA [1]; T-47D, at 4 h", "result": "1.9^† at 4 h"}
    ]},
    {"molecule": "CC#C[C@]1(O)CC[C@H]2[C@@H]3CCC4=CC(=O)CCC4=C3[C@@H](c3ccc(N(C)C)cc3)C[C@@]21C", "note": "[RU 486]", "values": [
      {"measurement": "Effect on PRG1 mRNA levels, compound alone", "setting": "PRG1 mRNA [1]; T-47D, serum-free medium with insulin, 100 nM, 3 h", "result": "no effect"}
    ]}
  ]
}
